Experimental data taken from article PMC4475277 (Chemistry & biology, 2015).

Tests used:
bsNOS (WT) = target: T1, bsNOS (WT) (Bacillus subtilis, UniProt O34453); conditions: read-out: WT - KS; imidazole displacement; ref Wang et al., 2004; cited from earlier work
T1 sequence (O34453 1-363): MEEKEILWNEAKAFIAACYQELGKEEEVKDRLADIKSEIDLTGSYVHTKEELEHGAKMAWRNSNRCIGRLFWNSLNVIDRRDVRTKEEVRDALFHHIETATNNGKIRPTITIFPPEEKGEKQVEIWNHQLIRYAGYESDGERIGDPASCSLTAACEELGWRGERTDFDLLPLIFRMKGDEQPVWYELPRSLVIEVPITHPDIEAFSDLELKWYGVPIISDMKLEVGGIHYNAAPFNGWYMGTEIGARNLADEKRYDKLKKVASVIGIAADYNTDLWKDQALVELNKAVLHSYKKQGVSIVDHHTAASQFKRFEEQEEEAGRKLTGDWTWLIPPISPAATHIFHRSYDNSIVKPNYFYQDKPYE

I218V bsNOS = I218V bsNOS (Bacillus subtilis, UniProt O34453, I218V); conditions: read-out: I218V - KS; imidazole displacement; ref Wang et al., 2004; cited from earlier work
Sequence of I218V bsNOS (O34453 whole entry I218V): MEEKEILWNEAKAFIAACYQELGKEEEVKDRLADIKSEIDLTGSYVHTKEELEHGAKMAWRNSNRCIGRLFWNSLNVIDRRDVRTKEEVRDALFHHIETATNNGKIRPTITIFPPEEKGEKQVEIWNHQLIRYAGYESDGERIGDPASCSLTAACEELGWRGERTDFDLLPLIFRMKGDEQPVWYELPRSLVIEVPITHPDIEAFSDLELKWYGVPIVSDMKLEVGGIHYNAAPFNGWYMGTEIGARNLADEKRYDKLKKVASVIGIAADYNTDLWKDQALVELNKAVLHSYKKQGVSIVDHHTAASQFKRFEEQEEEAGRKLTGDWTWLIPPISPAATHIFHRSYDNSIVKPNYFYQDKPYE

[1] = tested on: bBiDomain (a chimera of bsNOS and redox partner YkuN); experiment: bBiDomain single time point bacterial NOS activity inhibition; type: biochemical, Bacillus subtilis; conditions: inhibitor 30 µM, NOHA 200 µM, 4 min at 35 °C

In the case of `N=C(N)NCCC[C@H](N)C(=O)O` [L-Arg], the Kd (bsNOS (WT)) is given as 4.8 ± 0.1 µM and the Kd (I218V bsNOS) is given as 2 ± 0.2 µM.
In the case of `NC(=NCCC[C@H](N)C(=O)O)N[N+](=O)[O-]` [L-NNA], the “% nitrite (nitrite with inhibitor divided by nitrite without inhibitor)” value [1] is reported as 40.9 ± 5.3 % nitrite.
